Molecular target: T1, Bromodomain-containing protein 4 [75-147] (Homo sapiens, UniProt O60885)
T1 construct: 75-147
Assay: In Vitro Enzymatic Activity Assay
Protocol: In the present application, the IC50 value of the compound of formula (I) in inhibiting BRD4 (BD1) enzyme binding reaction were determined by homogeneous time resolved fluorescence (HTRF). The compound of formula (I) was serially diluted 5-fold with 100% DMSO starting from 0.2 mM (7 concentrations in total), and then 2 μL of the compound of formula (I) at each concentration was added to 48 μL of a reaction buffer (20 mM HEPES pH 7.5, 150 mM NaCl, 5 mM DTT, 0.005 % Tween 20, and 100 μg/mL BSA) for dilution, and mixed well. 2.5 μL of the resulting mixture was added to a 384-well plate (OptiPlate-384, purchased from PerkinElmer), then 5 μL of GST-BRD4 (BD1, 44-168 aa) (final concentration: 1 nM) was added, and the resulting mixture was centrifuged, and fully mixed. 2.5 μL of a short peptide Biotin-AHA-SGRGK(Ac)GGK(Ac)GLGK(Ac)GGAK(Ac) RHRKV (final concentration: 100 nM) was then added to initiate the reaction (total reaction volume: 10 μL). […] After being incubated in the incubator for another 1 hour, the fluorescence values (excited at 320 nm, emitted light at 665 nm and 620 nm being detected, and the ratio of the two being the enzyme binding signal) were read on Envision (purchased from PerkinElmer).

IC50: 0.64 nM
SMILES: Cn1cc(-c2nc(CS(C)(=O)=O)ccc2Oc2ccc(F)cc2F)c2cc[nH]c2c1=O [US20240101551, Compound of Formula I]
